Laboratory results taken from US4994459A, “Aryloxypropane substituted piperazine derivatives with antiarrhythmic and antifibrillatory activity” (American Home Products Corporation, priority 1989, dated 1991).

Experiments:
[1] = tested on: Pigs (Durrock-Landrace cross); experiment: Coronary occlusion-reperfusion in anesthetized pigs (20 min LAD occlusion, then reperfusion; survival); type: in vivo, pig; conditions: 20 minutes before LAD occlusion
Description: Pigs (Durrock-Landrace cross) of either sex weighing 12 to 24 kg were anesthetized by administration of sodium pentobarbital. (35 mg/kg i.p. and supplemented with 5 mg/kg/hr. i.v.) and ventilated with room air following tracheotomy (minute volume: 200 mL/kg). The left femoral artery and vein were cannulated for the recording of blood pressure and for drug administration, respectively. Blood pressure and lead II EKG were recorded on a chart recorder.
The heart was exposed by a left thoracotomy performed at the fifth intercostal space. A silk ligature was placed beneath the left anterior descending coronary artery (LAD) about 1.5 cm from its origin and distal to the septal artery branch. The artery was occluded by lifting the vessel with the ligature and quickly placing a bull-dog clamp (3×12 mm padded jaws) over the artery. The clamp remained in place for a period of 20 minutes. Removal of the clamp produced a rapid reperfusion of the ischemic myocardium as evidenced by the return of normal color to the myocardium distal to the site of occlusion. Ectopic activity was monitored during occlusion and reperfusion by recording the lead II EKG at chart speeds of 5 to 25 mm/second. Animals were allowed to stabilize for at least 30 minutes prior to drug administration.
Pigs were randomized into groups receiving either vehicle or test drug at a given dose (1-5 mg/kg i.v.) 20 minutes before LAD occlusion. Animals surviving the period of occlusion were subsequently reperfused. No attempt was made to resuscitate animals experiencing ventricular fibrillation (VF) at any time following occlusion. In the absence of treatment, less than 30 percent of the animals survive the 20 minute period of occlusion, with a mean time to death onset of 8 to 12 minutes. Effective compounds either prevent death due to VF or prolong survival time.

[2] = tested on: Purkinje fiber; experiment: Cardiac electrophysiology in vitro, dog Purkinje fibers (action potential parameters); type: cell-based; parameters: unit not given here; conditions: 3 μM
Description: The compounds of this invention display a Class III antiarrhythmic profile. The Class III antiarrhythmic activity was established in vitro and in vivo in accordance with the following standard test procedures. Bundles of free-running Purkinje fibers with attached myocardium obtained from either ventricle of adult dog heart were pinned without stretching to the bottom of a 10 mL tissue chamber and continuously superfused with oxygenated Tyrode's solution at a flow rate of 5 mL/min. The composition of the Tyrode's solution was (mM): NaCl, 138; KCl 4; CaCl2, 2; MgCl2 0.5; NaHCO3, 24; dextrose, 5.5. The solution was aerated with 95% O2 -5% CO2 at 37° C. Bath temperature was maintained at 37±0.5° C. by circulating the pre-warmed superfusate through a thermostatically controlled water bath immediately prior to entering the tissue chamber. The preparations were stimulated through bipolar Teflon-coated silver wires, bared at the tips, placed on the endocardial surface of the attached myocardium, using a digital stimulator set to deliver constant current pulses 1.5-msec in duration at cycle lengths of 300 or 1000 msec. Stimulus strength was set at approximately 2×diastolic threshold, and adjusted as required throughout the experiment. All preparations were allowed to equilibrate in the tissue chamber for at least 1 hour before measurements were begun. Subsequently, a minimum of 60 minutes were allowed for equilibration with each drug-containing superfusate before post-drug measurements were made. Impalements were made at 6 to 10 sites throughout the preparation before and after drug exposure. Offset potentials were rechecked after each impalement. Glass microelectrodes filled with 3M KCl were coupled to high impedance negative capacitance electrometers and Ag/AgCl half-cells used as reference electrodes. The first derivative of the action potential upstroke (Vmax) was obtained using an analog differentiator circuit, coupled to a peak-hold circuit that retained the recorded value of Vmax for 30 to 70-msec. […] In addition, chart paper recordings of Vmax were obtained using the peak-hold device output. Fresh stock solutions of drug were prepared for each experiment. […] Action potential (AP) parameters measured included: diastolic take-off potential or activation voltage, (Vact); AP overshoot (Vos); AP duration measured as the time taken to repolarize to -20 mV (APD-20),-60 mV (APD-60), and -80 mV (APD-80); and maximal upstroke velocity (Vmax). An increase in APD-60 that occurred without a significant change in Vmax was taken, by definition, to indicate Class III antiarrhythmic activity "in vitro".

[3] = tested on: Anesthetized Dog; experiment: Cardiac electrophysiology in anesthetized dogs (refractory periods, conduction times, heart rate, blood pressure); type: in vivo; parameters: ACT (atrial conduction time), change / VCT (ventricular conduction time), change / BP, change: unit not given here; conditions: 5 mg/kg i.v.; for ACT (atrial conduction time), change / AERP (refractory period of the right atrium), change / VCT (ventricular conduction time), change / VERP (refractory period of the right ventricle), change: BCL = 300, Example 1 n = 3; for BP, change / HR, change: Example 1 n = 3
Description: The compounds of this invention display a Class III antiarrhythmic profile. The Class III antiarrhythmic activity was established in vitro and in vivo in accordance with the following standard test procedures. Mongrel dogs of both sexes weighing 12 to 18 kg were anesthetized with sodium pentobarbital (35 mg/kg i.v. supplemented with 5 mg/kg/h) and artificially ventilated with room air (minute volume: 200 mL/kg). The heart was exposed by a right thoractomy performed at the fifth intercostal space and suspended in a pericardial cradle. Epicardial electrodes for stimulation and recording were sutured to the free wall of the lower right atrium and near the base of the right ventricle. Each electrode set contained a linear array of electrodes consisting of 1 bipolar stimulating electrode and 2 bipolar recording electrodes embedded in a rigid acrylic matrix. The stimulating bipole was 7 mm from the proximal recording electrode, which in turn was 10 mm from the distal recording bipole. Each electrode array was oriented to be parallel to the epicardial fiber axis. […] Conduction times and refractory periods were measured during pacing at a cycle length of 300 msec. The dog heart was paced by a stimulator driving a constant current isolation unit. […] Diastolic threshold was determined before and after each trial. Refractory periods of the right atrium and right ventricle ([…]) were determined by introducing an extrastimulus (S2) every 8 paced beats (S1). The extrastimulus was followed by a 4-second rest interval during which no pacing occurred. Both S1 and S2 were of identical intensity (twice threshold) and duration (2 msec). […] This S1 -S2 interval was considered to define effective refractory period. Atrial and ventricular (ACT and VCT) conduction times were measured as the time interval between the 2 electrograms recorded at the proximal and distal sites of the recording electrode array. The time of activation for electrograms with predominantly biphasic complexes was taken as the moment when the trace crossed the zero reference line, and for triphasic complexes, as the peak of the major deflection. Animals received the test compound by i.v. injection. Drugs were administered cumulatively at the following dose levels: 1, 2.5, 5, 7.5, 10 mg/kg. Each dose was administered over a 3 minute period. Electrophysiologic testing was performed 15 minutes following the end of dosing. Every 30 minutes the dog received the next incremental dose. […] An increase in ERP that occurred without a significant decrease of CT was taken, by definition to indicate "in vivo" Class III antiarrhythmic activity.

[4] = dextro enantiomer; Taggart et al. 1985, McComb et al. 1985; cited from earlier work

Compound | Fraction of pigs surviving 20 min. occlusion ([1]; 2.5 mg/Kg i.v.) | Fraction of pigs surviving reperfusion ([1]; 2.5 mg/Kg i.v.) | Fraction of pigs surviving 20 min. occlusion ([1]; 5 mg/Kg i.v.) | Fraction of pigs surviving reperfusion ([1]; 5 mg/Kg i.v.) | APD-60 (AP duration, time to repolarize to -60 mV), change ([2]; BCL = 300, Example 1 n = 2) | Vmax (maximal upstroke velocity), change ([2]; BCL = 300, Example 1 n = 2) | APD-60 (AP duration, time to repolarize to -60 mV), change ([2]; BCL = 1000, Example 1 n = 3) | Vmax (maximal upstroke velocity), change ([2]; BCL = 1000, Example 1 n = 3) | ACT (atrial conduction time), change [3] | AERP (refractory period of the right atrium), change [3] | VCT (ventricular conduction time), change [3] | VERP (refractory period of the right ventricle), change [3] | BP, change [3] | HR, change [3] | selective Class III antiarrhythmic activity [4]
Cl.Cl.O=[N+]([O-])c1ccc(OCC(O)CN2CCN(c3ccccn3)CC2)cc1 (racemic) [Example 1, α-[(4-Nitrophenoxy)methyl]-4-(2-pyridinyl)-1-piperazineethanol Dihydrochloride] | 1/4 | 0/4 | 4/4 | 2/4 | 15 | -19 | 29 ± 6 | -8 ± 5 | 16 ± 1 | 69 ± 7 | -7 ± 9 | 25 ± 3 | -33 ± 9 | -33 ± 1 | –
CS(=O)(=O)Nc1ccc(OCC(O)CN2CCN(c3ncccn3)CC2)cc1 (centres unmarked) [Example 4, N-[4-[2-Hydroxy-3-[4-(2-pyrimidinyl)-1-piperazinyl]-propoxy]phenyl]methanesulfonamide] | – | – | – | – | 16 | -12 | 33 | -17 | -4 | 24 | 0 | 13 | -16 | -14 | –
CS(=O)(=O)Nc1ccc(OCC(O)CN2CCN(c3ccccn3)CC2)cc1 (centres unmarked) [Example 5, N-[4-[2-Hydroxy-3-[4-(2-pyridinyl)-1-piperazinyl]propoxy]phenyl]methanesulfonamide] | – | – | – | – | 30 | 7 | 50 | 14 | 6 | 56 | 3 | 13 | -25 | -15 | –
CC(C)NCC(O)c1ccc(NS(C)(=O)=O)cc1 (centres unmarked) [Sotalol, 4-(2-isopropylamino-1-hydroxyethyl)-methane-sulfonamide] | – | – | – | – | – | – | – | – | – | – | – | – | – | – | selective Class III antiarrhythmic activity
